Results taken from patent US20240373891A1, “SWEETENER BLEND COMPRISING THAUMATIN AND MOGROSIDES” (NOMAD BIOSCIENCE GMBH, priority 2021, published 2024).

Key:
[1] = Round table evaluation of sweetness intensity (SEV) against sucrose reference samples; type: in vivo; conditions: mean of test panelists
Protocol: • Round table evaluations were performed with test panelists. Equal sweet 5 SEV concentrations in neutral pH water were made for Thaumatin II (purity greater than 90%), Mogroside V, and Siamenoside I. These equal sweet solutions were also mixed at 50% of Thaumatin II and 50% Mogroside V or Siamenoside I and compared to the individual components. The components of the test compositions are described in the below tables. The mixed compositions were calculated using the Beidler mixture equation for the sweeteners. The Beidler mixture equation for sweeteners is as follows: […]
The concentration of each component in the mixture in ppm is divided by SEV (c/R) and is plotted against concentration, c. The […]. The y-intercept of the linear regression multiplied by Rmaxis the half-maximal sweetness concentration, 1/K. Rmax and 1/K are the two parameters used in the Beidler equation. Mixtures were tasted in comparison to reference samples for the panelists to determine SEV values. References samples were 3%, 4%, 5%, 6%, 7%, and 8% sucrose in neutral pH water. The test samples were served in 2 ounce soufflé cups (approximately 60 ml) coded with 3-digit codes at room temperature. A two minute wait period between samples was enforced. Water and unsalted crackers was available for the panelists to clear their palates before and during testing. Results were collected for calculating approximate SEV level of each test sample. • The test products analyzed in this experiment are described below in Table 1.

[2] = Round table qualitative assessment of quality of sweetness and undesirable attributes, scale 1-10; type: in vivo; conditions: for Off taste (lower better) / Quality of sweetness (higher better): scale of 1-10, 6 panelists; for Quality of sweetness (higher better): 5% sucrose control
Protocol: • Round table evaluations were performed with 6 test panelists. Equal sweet 5 SEV concentrations in neutral pH water were made for Thaumatin II (purity greater than 90%), Mogroside V, and Siamenoside I. These equal sweet solutions were also mixed at 50% of Thaumatin II and 50% Mogroside V or Siamenoside I and compared to the individual components. All solutions were coded and blinded from panelists. Panelists were asked to provide a qualitative assessment on a scale of 1-10 of the quality of sweetness (10 being the highest quality of sweetness) and undesirable attributes (10 being most undesirable) of each solution using a 5% sucrose solution as a control.

[3] = summary of Example 2, compared with sucrose

Molecule	Sweetness intensity determined, SEV ([1]; 250 ppm in neutral pH water) [SEV]	Off taste (lower better) ([2]; 250 ppm in neutral pH water)	Quality of sweetness (higher better) ([2]; 250 ppm in neutral pH water)	Sweetness quality and off taste, in words ([2]; summary of Example 2)	Sweetness onset, in words [2, 3]	Sweetness intensity determined, SEV ([1]; 7 ppm in neutral pH water) [SEV]	Off taste (lower better) ([2]; 7 ppm in neutral pH water)	Quality of sweetness (higher better) ([2]; 7 ppm in neutral pH water)	Sweet aftertaste, in words [2, 3]
C[C@H](CC[C@@H](O[C@@H]1O[C@H](CO[C@@H]2O[C@H](CO)[C@@H](O)[C@H](O)[C@H]2O)[C@@H](O)[C@H](O)[C@H]1O[C@@H]1O[C@H](CO)[C@@H](O)[C@H](O)[C@H]1O)C(C)(C)O)[C@H]1CC[C@@]2(C)[C@@H]3CC=C4[C@@H](CC[C@H](O[C@@H]5O[C@H](CO[C@@H]6O[C@H](CO)[C@@H](O)[C@H](O)[C@H]6O)[C@@H](O)[C@H](O)[C@H]5O)C4(C)C)[C@]3(C)[C@H](O)C[C@]12C [Mogroside V]	5.3	3.3	7.5	very mild off notes were detected	rapid	–	–	–	–
C[C@H](CC[C@@H](O[C@@H]1O[C@H](CO[C@@H]2O[C@H](CO)[C@@H](O)[C@H](O)[C@H]2O)[C@@H](O)[C@H](O)[C@H]1O[C@@H]1O[C@H](CO)[C@@H](O)[C@H](O)[C@H]1O)C(C)(C)O)[C@H]1CC[C@@]2(C)[C@@H]3CC=C4[C@@H](CC[C@H](O[C@@H]5O[C@H](CO)[C@@H](O)[C@H](O)[C@H]5O)C4(C)C)[C@]3(C)[C@H](O)C[C@]12C [Siamenoside I]	6.0	2.6	7.8	very mild off notes were detected	rapid	–	–	–	–
Thaumatin II: protein of SEQ ID NO: 2, purity greater than 90%, recombinantly expressed in plants (protein, listed as Thaumatococcus daniellii) ATFEIVNRCSYTVWAAASKGDAALDAGGRQLNSGESWTINVEPGTKGGKIWARTDCYFDDSGRGICRTGDCGGLLQCKRFGRPPTTLAEFSLNQYGKDYIDISNIKGFNVPMDFSPTTRGCRGVRCAADIVGQCPAKLKAPGGGCNDACTVFQTSEYCCTTGKCGPTEYSRFFKRLCPDAFSYVLDKPTTVTCPGSSNYRVTFCPTA	–	–	–	clean sweetness without any off taste	slightly delayed	4.8	4.9	5.3	lasted longer
